Our source for the IC50 values is BindingDB's records for doi:10.3109/14756360903179435 (Jamia Hamdard, 2010).

SMILES strings stand for the structures.

For test [1], the target named is T1, Prostaglandin G/H synthase 1 (Ovis aries, UniProt P05979).
T1 sequence (P05979 whole entry): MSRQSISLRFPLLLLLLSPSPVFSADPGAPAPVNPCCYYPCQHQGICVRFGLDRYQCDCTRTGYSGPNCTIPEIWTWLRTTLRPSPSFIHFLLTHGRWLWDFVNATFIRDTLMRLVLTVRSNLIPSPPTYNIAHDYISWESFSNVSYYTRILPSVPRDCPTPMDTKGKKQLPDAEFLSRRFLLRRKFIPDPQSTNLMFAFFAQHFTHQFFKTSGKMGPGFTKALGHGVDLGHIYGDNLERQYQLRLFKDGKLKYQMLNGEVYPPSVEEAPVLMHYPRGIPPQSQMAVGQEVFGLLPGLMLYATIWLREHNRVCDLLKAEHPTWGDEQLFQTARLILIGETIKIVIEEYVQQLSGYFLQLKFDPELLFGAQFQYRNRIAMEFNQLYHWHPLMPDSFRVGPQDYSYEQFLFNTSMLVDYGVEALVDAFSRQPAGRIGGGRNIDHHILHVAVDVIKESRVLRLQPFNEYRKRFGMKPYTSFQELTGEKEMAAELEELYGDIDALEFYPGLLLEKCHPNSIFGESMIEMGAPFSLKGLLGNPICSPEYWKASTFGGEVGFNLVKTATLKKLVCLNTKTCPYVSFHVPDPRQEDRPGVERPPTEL
Briefly: In Vitro Cyclo-Oxygenase Inhibition Assay. Here is the method: (§1) Inhibition of the enzymes was determined using an enzyme immunoassay (EIA) kit (catalog no. 560101, Cayman Chemical, Ann Arbor, MI, USA) according to the methodology described by Jashim Uddin et al. [Jashim Uddin et al., Bioorg. Med. Chem., 12:5929-40].

Test [2] has as its target T2, Prostaglandin G/H synthase 2 (Ovis aries, UniProt P79208).
T2 sequence (P79208 whole entry): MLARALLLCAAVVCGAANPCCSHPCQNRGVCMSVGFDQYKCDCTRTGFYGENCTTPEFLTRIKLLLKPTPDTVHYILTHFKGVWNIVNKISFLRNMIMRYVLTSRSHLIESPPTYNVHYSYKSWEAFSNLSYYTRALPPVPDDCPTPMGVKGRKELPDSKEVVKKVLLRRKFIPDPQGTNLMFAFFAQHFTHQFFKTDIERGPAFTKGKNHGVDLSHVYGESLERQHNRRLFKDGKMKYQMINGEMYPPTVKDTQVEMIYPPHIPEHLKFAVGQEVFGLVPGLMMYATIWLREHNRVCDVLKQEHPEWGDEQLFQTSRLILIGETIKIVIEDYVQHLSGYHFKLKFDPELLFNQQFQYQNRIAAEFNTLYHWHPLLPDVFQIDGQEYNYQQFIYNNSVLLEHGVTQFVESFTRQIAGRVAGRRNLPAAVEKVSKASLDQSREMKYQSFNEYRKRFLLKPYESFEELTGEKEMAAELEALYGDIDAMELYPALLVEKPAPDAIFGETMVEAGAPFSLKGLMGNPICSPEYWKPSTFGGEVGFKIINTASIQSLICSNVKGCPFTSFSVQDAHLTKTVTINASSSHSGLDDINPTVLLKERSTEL
Briefly: In Vitro Cyclo-Oxygenase Inhibition Assay. Here is the method:
as §1

Turning to `CC(C)Cc1ccc(C2=C/C(=C\c3ccc(Cl)cc3Cl)C(=O)O2)cc1` [3-(2,4-Dichlorobenzylidene)-5-(4-isobutylphenyl)-2(3H)-furanone (14)], the IC50 in test [1] stood at 48.2 µM; in test [2], 2200 nM.

With `CC(C)Cc1ccc(C2=C/C(=C\c3c(Cl)cccc3Cl)C(=O)O2)cc1` [3-(2,6-Dichlorobenzylidene)-5-(4-isobutylphenyl)-2(3H)-furanone (13)], the IC50 in test [1] came out at 47.6 µM; in test [2], 1800 nM.

As to `CC(C)Cc1ccc(C2=C/C(=C\c3ccccc3Cl)C(=O)O2)cc1` [3-(2-Chlorobenzylidene)-5-(4-isobutylphenyl)-2(3H)-furanone (3)], the IC50 in test [1] stood at 52.4 µM; in test [2] it was 2400 nM.

On to `CC(C)Cc1ccc(C2=C/C(=C\c3ccc(F)cc3)C(=O)O2)cc1` [3-(4-Fluorobenzylidene)-5-(4-isobutylphenyl)-2(3H)-furanone (9)], for which the IC50 in test [1] turned out to be 68.3 µM; in test [2], 3800 nM.
